# Experimental data as given in PMC8977893 (Frontiers in Cell and Developmental Biology, 2022).
# Where “and” joins values, the source holds several entries; their conditions need not be identical. Equal entries are not always repeated.
# B1: PrP(106–126) (peptide)
# peptide: KTNMKHMAGAAAAGAVVGGLG
# notes: also called prion peptide; prion
# Tests used:
# [1] = tested on: calpain in washed human platelets; type: cell-based
# [2] = tested on: talin in human platelets; type: cell-based
# [3] = tested on: SH-SY5Y cells; type: cell-based, human
# [4] = tested on: SH-SY5Y cells; type: cell-based, human; remark: listed apart in the source
# [5] = tested on: SH-SY5Y cells; type: cell-based, human; remark: listed apart in the source
# [6] = tested on: human platelets; type: cell-based; details: fibrinogen 2 mg/ml; PrP 20 µM
# [7] = tested on: human platelets; type: cell-based; details: fibrinogen 0.5 to 2 mg/ml before PrP(106–126) 20 µM; 1 mM Ca2+
# [8] = molecular target: fibrinogen from human plasma (human, UniProt P02671 36-866; P02675 45-491; P02679 27-453); test: SPR; details: both partners purified
molecule,measurement,setting,value
"CNc1ccc2oc(C[C@H]3O[C@@]4(CC[C@H]3C)O[C@H]([C@H](C)C(=O)c3ccc[nH]3)[C@H](C)C[C@H]4C)nc2c1C(=O)O [A23187, reference compound]",calpain activity in platelets (in words),[1],significant enhancement in calpain activity
same,proteolysis of talin (235 kDa to 190 kDa fragment),[2],complete proteolysis of talin
fibrinogen: thrombogenic plasma protein fibrinogen from human plasma (Sigma #F4883),drop in calpain activity on fibrinogen preincubation,[1],30%
same,attenuation of the rise in ΔΨm on preincubation with fibrinogen,[3],1.7 fold
same,"Cell line MTT (viability, Vehicle = 100)",[4],101.27 and 76.19 and 118.37
same,effect of fibrinogen preincubation on PrP-induced loss of viability,[4]; 48 h,completely restored
same,abrogation of the PrP-induced FSC increase by prior fibrinogen treatment,[5],16.34% ± 17.85
same,effect of prior fibrinogen exposure on prion-induced extracellular vesicle shedding,[6],completely thwarted
same,effect of fibrinogen pretreatment on prion-induced rise in [Ca2+]i,[7],attenuated prion-induced rise in [Ca^2+]i in a dose-dependent manner
same,effect of fibrinogen on prion-mediated cleavage of talin,"[2]; fibrinogen 2 mg/ml preincubation, immunoblot, 190 kDa product",completely prevented prion-mediated cleavage of talin
"C[S+](C)[O-] [DMSO, dimethylsulfoxide, reference compound]","Cell line MTT (viability, Vehicle = 100)",[4],15.72 and 26.11 and 18.47
B1,Kd,[8],0.512 ± 0.089 µM
